Source: patent publication US8501750B2, “Heterocyclic compound and use thereof” (Takeda Pharmaceutical Company Limited, priority 2007, dated 2013)
Counter-ions that a name gives are not always drawn. Like-named read-outs stand apart in the source and are kept apart here.

Legend:
AT1 receptor = AT1 receptor (Homo sapiens (Human), UniProt P30556); assay: AT1 receptor binding inhibitory action
PPARγ = PPARγ (Homo sapiens (Human), UniProt P37231); assay: PPARγ activating action (luciferase reporter in PPARγ:RXRα:4ERPP/CHO-K1 cells); assay type: cell-based; conditions: CHO-K1, 24 h, read-out: PPARγ activating action (activation % (1 μM))
Description: Then the medium was removed from the 96-well half area white plate, 45 μl of Ham's F12 medium containing 0.1% fatty acid-free bovine serum albumin (BSA) and 5 μl of test compound were added, and the cells were cultured in a CO2 gas incubator at 37° C. for 1 day. The medium was removed and 20 μl of PicaGene 7.5 [manufactured by Dainippon Ink and Chemicals Corporation, Japan] diluted 2-fold with HBSS (HANKS' BALANCED SALT SOLUTION) [manufactured by BIO WHITTAKER, USA] was added. After stirring, the luciferase activity was determined using 1420 ARVO Multilabel Counter [manufactured by PerkinElmer, USA]. […] A CHO-K1 cell cultured in a 150 cm^2 cell culture flask [manufactured by Corning Costar Corporation, USA] containing Ham's F12 medium [manufactured by INVITROGEN, USA] supplemented with 10% fetal bovine serum [manufactured by INVITROGEN, USA] was scraped by treating with 0.5 g/L trypsin-0.2 g/L EDTA (ethylenediaminetetraacetic acid) [manufactured by Life Technologies, Inc., USA], and then the cell was washed with PBS (Phosphate-buffered saline) [manufactured by INVITROGEN, USA], centrifuged (1000 rpm, 5 minutes) and suspended in PBS. Subsequently, DNA was introduced into the cell under the conditions shown below using GENE PULSER [manufactured by Bio-Rad Laboratories, USA]. […] Subsequently, the cell was transferred into a F12 medium containing 10% fetal bovine serum and cultured for 24 hours, and then the cell was scraped again and centrifuged, and then suspended in Ham's F12 medium containing 10% fetal bovine serum supplemented with 500 μg/ml of Geneticin [manufactured by INVITROGEN, USA] and 250 μg/ml of Zeocin [manufactured by INVITROGEN, USA]. The obtained suspension was diluted to the density of 10^4 cells/ml and inoculated in a 96-well plate [manufactured by Corning Costar Corporation, USA], which was cultured in a CO2 gas incubator at 37° C., whereby obtaining a Geneticin- and Zeocin-resistant transformant.

[1] = test compound 1 μM, luciferase activity relative to control compound X (1 μM) = 100%, non-administration group = 0%

AT1 receptor, sequence (P30556 whole entry): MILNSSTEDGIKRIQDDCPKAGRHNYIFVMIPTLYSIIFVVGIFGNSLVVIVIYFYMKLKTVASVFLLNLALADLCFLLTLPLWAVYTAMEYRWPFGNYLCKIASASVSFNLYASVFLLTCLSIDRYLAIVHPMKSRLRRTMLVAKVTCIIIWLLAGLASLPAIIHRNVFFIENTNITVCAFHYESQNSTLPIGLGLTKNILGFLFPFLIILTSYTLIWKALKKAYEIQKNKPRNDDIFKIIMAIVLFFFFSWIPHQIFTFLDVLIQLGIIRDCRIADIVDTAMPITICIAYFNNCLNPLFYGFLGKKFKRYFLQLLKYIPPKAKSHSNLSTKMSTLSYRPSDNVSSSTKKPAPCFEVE
PPARγ, sequence (P37231 29-505): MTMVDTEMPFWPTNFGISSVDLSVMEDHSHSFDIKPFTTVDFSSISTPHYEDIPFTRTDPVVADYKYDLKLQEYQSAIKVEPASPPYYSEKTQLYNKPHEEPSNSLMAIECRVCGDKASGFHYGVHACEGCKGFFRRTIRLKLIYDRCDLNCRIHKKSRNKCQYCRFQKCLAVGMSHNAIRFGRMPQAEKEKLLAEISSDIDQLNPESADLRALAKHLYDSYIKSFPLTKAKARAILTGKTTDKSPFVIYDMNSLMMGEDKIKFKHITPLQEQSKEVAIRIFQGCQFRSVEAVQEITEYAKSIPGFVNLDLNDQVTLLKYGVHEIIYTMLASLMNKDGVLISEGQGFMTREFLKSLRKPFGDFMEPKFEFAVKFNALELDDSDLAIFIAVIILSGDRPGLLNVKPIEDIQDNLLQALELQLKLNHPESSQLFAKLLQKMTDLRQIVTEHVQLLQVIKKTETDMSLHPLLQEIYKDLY
PPARγ, sequence (P19793 whole entry partner): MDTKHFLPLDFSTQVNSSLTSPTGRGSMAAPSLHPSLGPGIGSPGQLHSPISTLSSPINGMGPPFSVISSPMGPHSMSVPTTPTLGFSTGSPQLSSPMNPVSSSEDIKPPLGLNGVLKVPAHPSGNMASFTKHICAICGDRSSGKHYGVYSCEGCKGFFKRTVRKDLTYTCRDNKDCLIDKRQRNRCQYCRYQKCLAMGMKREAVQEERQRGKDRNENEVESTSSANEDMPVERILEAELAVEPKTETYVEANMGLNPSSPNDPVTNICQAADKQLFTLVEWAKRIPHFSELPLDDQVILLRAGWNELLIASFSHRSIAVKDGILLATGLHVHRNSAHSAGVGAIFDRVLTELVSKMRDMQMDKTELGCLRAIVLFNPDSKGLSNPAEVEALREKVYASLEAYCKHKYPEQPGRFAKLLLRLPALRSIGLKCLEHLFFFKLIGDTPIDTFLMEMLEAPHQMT

Structure (SMILES)	IC50 (AT1 receptor)	activation at 1 µM (PPARγ; [1])	activation at 1 µM (PPARγ)
CCc1cc2c(=O)n(CC(=O)c3ccc(Cl)s3)c(=O)n(Cc3ccc(-c4ccccc4-c4noc(=O)[nH]4)cc3)c2s1 [Ex. 150, 3-[2-(5-chloro-2-thienyl)-2-oxoethyl]-6-ethyl-1-{[2′-(5-oxo-4,5-dihydro-1,2,4-oxadiazol-3-yl)biphenyl-4-yl]methyl}thieno[2,3-d]pyrimidine-2,4(1H,3H)-dione]	1.5 nM	33%	–
CCc1cc2c(=O)n(CC(O)c3ccc(OC)cc3)c(=O)n(Cc3ccc(-c4ccccc4-c4noc(=O)[nH]4)cc3F)c2s1 (centres unmarked) [Ex. 152, 6-ethyl-1-{[3-fluoro-2′-(5-oxo-4,5-dihydro-1,2,4-oxadiazol-3-yl)biphenyl-4-yl]methyl}-3-[2-hydroxy-2-(4-methoxyphenyl)ethyl]thieno[2,3-d]pyrimidine-2,4(1H,3H)-dione]	1.5 nM	40%	–
CCc1cc2c(=O)n(CC(OC(C)=O)c3ccc(OC)cc3)c(=O)n(Cc3ccc(-c4ccccc4-c4noc(=O)[nH]4)cc3F)c2s1 (centres unmarked) [Ex. 153, 2-[6-ethyl-1-{[3-fluoro-2′-(5-oxo-4,5-dihydro-1,2,4-oxadiazol-3-yl)biphenyl-4-yl]methyl}-2,4-dioxo-1,4-dihydrothieno[2,3-d]pyrimidin-3(2H)-yl]-1-(4-methoxyphenyl)ethyl acetate]	1.3 nM	39%	–
CCc1cc2c(=O)n(CC(C)(C)C)c(=O)n(Cc3ccc(-c4ccccc4-c4noc(=O)[nH]4)cc3)c2s1 [Ex. 154, 3-(2,2-dimethylpropyl)-6-ethyl-1-{[2′-(5-oxo-4,5-dihydro-1,2,4-oxadiazol-3-yl)biphenyl-4-yl]methyl}thieno[2,3-d]pyrimidine-2,4(1H,3H)-dione]	1.9 nM	51%	–
CCc1cc2c(=O)n(CC(=O)c3ccc(OC)c(F)c3)c(=O)n(Cc3ccc(-c4ccccc4-c4noc(=O)[nH]4)cc3F)c2s1 [Ex. 157, 6-ethyl-3-[2-(3-fluoro-4-methoxyphenyl)-2-oxoethyl]-1-{[3-fluoro-2′-(5-oxo-4,5-dihydro-1,2,4-oxadiazol-3-yl)biphenyl-4-yl]methyl}thieno[2,3-d]pyrimidine-2,4(1H,3H)-dione]	1.4 nM	35%	–
CCCc1cc2c(=O)n(CC(=O)c3ccc(OC)cc3)c(=O)n(Cc3ccc(-c4ccccc4-c4noc(=O)[nH]4)cc3F)c2s1 [Ex. 158, 1-{[3-fluoro-2′-(5-oxo-4,5-dihydro-1,2,4-oxadiazol-3-yl)biphenyl-4-yl]methyl}-3-[2-(4-methoxyphenyl)-2-oxoethyl]-6-propylthieno[2,3-d]pyrimidine-2,4(1H,3H)-dione]	1.7 nM	30%	–
CCc1cc2c(=O)n(-c3ccc(OC(C)C)cc3)c(=O)n(Cc3ccc(-c4ccccc4-c4noc(=O)[nH]4)cc3F)c2s1 [Ex. 180, 6-ethyl-1-{[3-fluoro-2′-(5-oxo-4,5-dihydro-1,2,4-oxadiazol-3-yl)biphenyl-4-yl]methyl}-3-(4-isopropoxyphenyl)thieno[2,3-d]pyrimidine-2,4(1H,3H)-dione]	1.6 nM	50%	–
CCc1cc2c(=O)n(-c3ccc4c(c3)CC(C)(C)O4)c(=O)n(Cc3ccc(-c4ccccc4-c4noc(=O)[nH]4)cc3F)c2s1 [Ex. 181, 3-(2,2-dimethyl-2,3-dihydro-1-benzofuran-5-yl)-6-ethyl-1-{[3-fluoro-2′-(5-oxo-4,5-dihydro-1,2,4-oxadiazol-3-yl)biphenyl-4-yl]methyl}thieno[2,3-d]pyrimidine-2,4(1H,3H)-dione]	1.2 nM	55%	–
CC(C)(C)C(=O)Cn1c(=O)c2cc(C3CC3)sc2n(Cc2ccc(-c3ccccc3-c3noc(=O)[nH]3)cc2)c1=O [Ex. 186, 6-cyclopropyl-3-(3,3-dimethyl-2-oxobutyl)-1-{[2′-(5-oxo-4,5-dihydro-1,2,4-oxadiazol-3-yl)biphenyl-4-yl]methyl}thieno[2,3-d]pyrimidine-2,4(1H,3H)-dione]	1.2 nM	52%	–
CCc1cc2c(=O)n(CC(=O)c3ccc(OC)cc3)c(=O)n(Cc3ccc(-c4ccccc4-c4noc(O)n4)cc3OC)c2s1 [Ex. 192, 6-ethyl-1-{[3-methoxy-2′-(5-oxo-4,5-dihydro-1,2,4-oxadiazol-3-yl)biphenyl-4-yl]methyl}-3-[2-(4-methoxyphenyl)-2-oxoethyl]thieno[2,3-d]pyrimidine-2,4(1H,3H)-dione potassium salt]	2.3 nM	–	49%
CCc1cc2c(=O)n(CC(=O)c3ccc(OC)cc3)c(=O)n(Cc3ccc(-c4ccccc4-c4noc(O)n4)cc3Br)c2s1 [Ex. 194, 1-{[3-bromo-2′-(5-oxo-4,5-dihydro-1,2,4-oxadiazol-3-yl)biphenyl-4-yl]methyl}-6-ethyl-3-[2-(4-methoxyphenyl)-2-oxoethyl]thieno[2,3-d]pyrimidine-2,4(1H,3H)-dione potassium salt]	1.7 nM	–	34%
CCc1cc2c(=O)n(CC(=O)c3ccc(OC)cc3)c(=O)n(Cc3c(F)cc(-c4ccccc4-c4noc(=O)[nH]4)cc3F)c2s1 [Ex. 197, 1-{[3,5-difluoro-2′-(5-oxo-4,5-dihydro-1,2,4-oxadiazol-3-yl)biphenyl-4-yl]methyl}-6-ethyl-3-[2-(4-methoxyphenyl)-2-oxoethyl]thieno[2,3-d]pyrimidine-2,4(1H,3H)-dione]	1.4 nM	67%	–
CCc1cc2c(=O)n(CC(=O)C3CCCCC3)c(=O)n(Cc3ccc(-c4ccccc4-c4noc(=O)[nH]4)cc3)c2s1 [Ex. 205, 3-(2-cyclohexyl-2-oxoethyl)-6-ethyl-1-{[2′-(5-oxo-4,5-dihydro-1,2,4-oxadiazol-3-yl)biphenyl-4-yl]methyl}thieno[2,3-d]pyrimidine-2,4(1H,3H)-dione]	1.5 nM	69%	–

More lines, main results first:

IC50 (AT1 receptor)	activation at 1 µM (PPARγ; [1])	Structure (SMILES)	activation at 1 µM (PPARγ)
1.5 nM	36%	CCc1cc2c(=O)n(CC(=O)c3ccc(OC)cc3)c(=O)n(Cc3ccc(-c4ccc(F)cc4-c4noc(=O)[nH]4)cc3)c2s1 [Ex. 198, 6-ethyl-1-{[4′-fluoro-2′-(5-oxo-4,5-dihydro-1,2,4-oxadiazol-3-yl)biphenyl-4-yl]methyl}-3-[2-(4-methoxyphenyl)-2-oxoethyl]thieno[2,3-d]pyrimidine-2,4(1H,3H)-dione]	–
1.8 nM	28%	CCc1cc2c(=O)n(CC(=O)c3ccc(OC)cc3)c(=O)n(Cc3ccc(-c4cc(F)ccc4-c4noc(=O)[nH]4)cc3)c2s1 [Ex. 203, 6-ethyl-1-{[5′-fluoro-2′-(5-oxo-4,5-dihydro-1,2,4-oxadiazol-3-yl)biphenyl-4-yl]methyl}-3-[2-(4-methoxyphenyl)-2-oxoethyl]thieno[2,3-d]pyrimidine-2,4(1H,3H)-dione]	–
1.4 nM	66%	CCc1cc2c(=O)n(CC(=O)c3ccccc3)c(=O)n(Cc3ccc(-c4ccccc4-c4noc(=O)[nH]4)cc3)c2s1 [Ex. 209, 6-ethyl-1-{[2′-(5-oxo-4,5-dihydro-1,2,4-oxadiazol-3-yl)biphenyl-4-yl]methyl}-3-(2-oxo-2-phenylethyl)thieno[2,3-d]pyrimidine-2,4(1H,3H)-dione]	–
1.6 nM	31%	CCO/N=C(/Cn1c(=O)c2cc(CC)sc2n(Cc2ccc(-c3ccccc3-c3noc(=O)[nH]3)cc2)c1=O)c1ccc(OC)cc1 [Ex. 210, 3-[2-(ethoxyimino)-2-(4-methoxyphenyl)ethyl]-6-ethyl-1-{[2′-(5-oxo-4,5-dihydro-1,2,4-oxadiazol-3-yl)biphenyl-4-yl]methyl}thieno[2,3-d]pyrimidine-2,4(1H,3H)-dione]	–
2 nM	49%	CCc1cc2c(=O)n(CC(=NOC(C)C)c3ccc(OC)cc3)c(=O)n(Cc3ccc(-c4ccccc4-c4noc(=O)[nH]4)cc3)c2s1 [Ex. 213, 6-ethyl-3-[2-(isopropoxyimino)-2-(4-methoxyphenyl)ethyl]-1-{[2′-(5-oxo-4,5-dihydro-1,2,4-oxadiazol-3-yl)biphenyl-4-yl]methyl}thieno[2,3-d]pyrimidine-2,4(1H,3H)-dione]	–
1.8 nM	41%	C=CCON=C(Cn1c(=O)c2cc(CC)sc2n(Cc2ccc(-c3ccccc3-c3noc(=O)[nH]3)cc2)c1=O)c1ccc(OC)cc1 [Ex. 214, 3-[2-[(allyloxy)imino]-2-(4-methoxyphenyl)ethyl]-6-ethyl-1-{[2′-(5-oxo-4,5-dihydro-1,2,4-oxadiazol-3-yl)biphenyl-4-yl]methyl}thieno[2,3-d]pyrimidine-2,4(1H,3H)-dione]	–
